Data on 3 compounds can be found in US20130209986A1, “METHOD FOR ENHANCING BUTYRATE PRODUCTION BY CLOSTRIDIUM TYROBUTYRICUM” (KOREA INSTITUTE OF SCIENCE AND TECHNOLOGY, priority 2012, published 2013).

The subject of assay [1] is Clostridium tyrobutyricum strains. The assay is described as follows: Fermentation of Clostridium tyrobutyricum with an electron transfer mediator added to the P2 culture medium (Experimental Example 1). Type of assay: cell-based. To be noted: for Enhancement of butyrate production by simply adding the mediator to the medium: simple addition, no reduction electrode. On the procedure: The P2 culture medium (Qureshi and Blaschek 1999) of pH 6.4±0.1 containing sucrose of 20 g/L instead glucose was sterilized. The Methyl Viologen (MV) (E°′=−446 mV) (Aldrich, South Korea) was added to the sterilized P2 culture medium with the concentrations of 0.1 mM (embodiment 1-1), 0.4 mM (embodiment 1-2), 0.5 mM (embodiment 1-3), 1.0 mM (embodiment 1-4), 2.0 mM (embodiment 1-5), 5.0 mM (embodiment 1-6) and 10.0 mM (embodiment 1-7). The separated Clostridium tyrobutyricum strains were inoculated on the MV-added P2 culture medium and were cultured at 37° C. and 150 rpm.
The strains were cultured under the same conditions as the conditions of the embodiments 1-1 to 1-7 except for the strains which didn't have an added MV.
The strains were cultured under the same conditions as the conditions of the embodiments 1-1 to 1-7 except for the strains on which 0.1 mM and 0.5 mM of the Neutral Red (NR) (E°′=−325 mV) (Aldrich, South Korea) were added instead of the MV.
The strains were cultured under the same conditions as the conditions of the embodiments 1-1 to 1-7 except for the strains on which 0.5 mM of anthraquinone-1,5-disulfonic acid, AQDS) (E°′=−184 mV) (Aldrich, South Korea) was added instead of the MV.
The butyrate and acetate produced through the embodiments 1-1 to 1-7, the comparison example 1, the comparison examples 2-1 to 2-7 and the comparison examples 3-1 to 3-7 were analyzed by HP-INNOWax column (30 m×250 μm×0.25 μm, Agilent Technologies and the gas chromatography (GC, Agilent technology 6890N Network GC System) with the frame-ionized detector. The hydrogen and carbon dioxide were quantified by multiplying the gas composition with the increased gas volume. The gas composition percentage was analyzed by the GC having a heat conductivity detector. The consumed sucrose concentration was quantified by a high performance liquid chromatography (HPLC) (Hi-plex H, Agilent, Santa Clara, Calif.) with 5 mM of sulfuric acid as a mobile phase at the flow rate of 0.5 mLmin^−1. The growth of microorganisms was checked at 600 nm of absorbance by using Shimadzu UVmini-1240 spectrophotometer or was checked with the Chemical Oxygen Demand (COD, mg/L unit) induced by the base soluble COD from the total COD by using COD vials (C-mac, South Korea, concentration range of 10-1,500 mg/L). The obtained values were average values obtained as the experiments were repeatedly performed three times or four times under a corresponding condition.

The test system of assay [2] is Clostridium tyrobutyricum. The assay is described as follows: Fermentation of Clostridium tyrobutyricum in a bioelectrical reactor (BER) with reduction electrode and electron transfer mediator (Experimental Example 2). Type of assay: cell-based. On the procedure:
A Bioelectrical Reactor (BER) formed of Pyrex was manufactured, which was specially designed for the sake of the anaerobic bacteria culture by changing a little the H-type reactor with a dual chamber (450 mL each). The reduction electrode (cathode) was a graphite felt electrode (4.5 cm×12 cm), and the oxidation electrode (anode) was a Pt plate electrode (2.5 cm×5 cm). The reference electrode was Ag/AgCl, 3 M KCl (BASi, West Lafayette, Ind.) and was dipped at a portion of the reduction electrode. The portions of the oxidation electrode and the reduction electrode were separated by Nafion 117 positive ion-exchange membrane (Naracell-tech, South Korea). The biological gas was collected by a Tedlar bag connected with a stainless steel fitting inserted in a reduction electrode stopper. The temperature of the reactor was maintained at 37±1° C. by a heating tape (Daihan, South Korea). The temperature sensor was inserted into a partition of the oxidation electrode by way of the stainless steel stand rod.
The portion of the reduction electrode of the reactor has features in that the neutral red was filled with the P2 medium added with 0.1 mM, and the portion of the oxidation electrode was filled with hexacyanoferrate [K4(Fe(CN)6)·3H2O]. The BER operated under a constant reduction electrode potential of −400 mV (vs. Ag/AgCl). The above mentioned potential was set by the potentiostat/galvanostat (EG&G Princeton Applied Research, Model 273A, Princeton, N.J.) which could be controlled by a computer. So, the current between the oxidation electrode and the reduction electrode was monitored. The reduction voltage applied to the reduction electrode was determined from the redox peak in the cyclic voltammogram of the culture liquid to which the neutral red was added at the scan speed of 20 mV/s based on the reduction electrode versus Ag/AgCl. The reduction of the neutral red by the reduction electrode appeared as the color of the solution turned from the red (NRox) to the yellow (NRred) when it was balanced to the negative potential within 5-30 minutes. For the sake of pH-adjusted BER operation, pH was maintained at 6 by temporarily adding 3M NaOH.
The embodiment 3 was performed in the same manner as the embodiment 2 except for the adjustment of pH.
The embodiment 4 was performed in the same manner as the embodiment 2 except that the portion of the reduction electrode of the reactor was filed with the P2 medium added with the MV of 0.5 mM of concentration was operated under a constant reduction electrode potential of −750 mV (vs. Ag/AgCl). In case of the MV, the reduction had features in that the color of the solution turned from a colorlessness (MVox) to a purple color (MVred).

Where [3] appears, read: Embodiment 4: methyl viologen 0.5 mM, −750 mV.
The mark [4] stands for this setting: methyl viologen 0.1 mM (embodiment 1-1).
Setting [5] is: methyl viologen 0.4 mM (embodiment 1-2).
[6] abbreviates: methyl viologen 0.5 mM (embodiment 1-3).
The mark [7] stands for this setting: methyl viologen 1 mM (embodiment 1-4).
Where [8] appears, read: methyl viologen 2 mM (embodiment 1-5).
[9] abbreviates: methyl viologen 5 mM (embodiment 1-6).
[10] abbreviates: methyl viologen 10 mM (embodiment 1-7).
Where [11] appears, read: Embodiment 2: BER with neutral red 0.1 mM, −400 mV, pH 6 controlled.
Where [12] appears, read: Embodiment 3: BER with neutral red 0.1 mM, −400 mV, no pH control.

Take `O=C1c2cccc(S(=O)(=O)O)c2C(=O)c2cccc(S(=O)(=O)O)c21` [AQDS, anthraquinone-1,5-disulfonic acid]: in assay [1], the “Enhancement of butyrate production by simply adding the mediator to the medium” value (from here on “Enhancement of butyrate production”) is recorded as “impossible to enhance the production of butyrate”.
Take `C[n+]1ccc(-c2cc[n+](C)cc2)cc1` [Methyl viologen, Methyl Viologen]: in assay [2] (setting [3]), the “Acetate productivity (maximum productivity)” value (shortened to “Acetate productivity”) is listed as 0.25 ± 0 g/L, h^−1; the “Butyrate productivity (maximum productivity)” value (“Butyrate productivity” below) is 0.34 ± 0.01 g/L, h^−1; the Butyrate yield came to 0.43 ± 0.02 g butyrate/g sucrose; the Final butyrate concentration turned out to be 7.1 ± 0.4 g/L. Also, in assay [2] (setting [3]), the “Maximum O.D. (600 nm)” value is reported as 5.3 ± 0.4; the Specific growth rate was 0.10 ± 0.01 h⁻¹; the “Sucrose uptake rate (maximum uptake rate)” value (shortened to “Sucrose uptake rate”) is recorded as 0.85 ± 0.05 g/L, h^−1. For the same compound, the “Production of butyrate in the reduction electrode system” value in assay [2] (MV, embodiment 4, −750 mV vs. Ag/AgCl) is on record as “didn't help enhance the production of butyrate”. For the same compound, the “Final concentration of butyrate as compared to the comparison group” value in assay [1] (0.5 mM, simple addition without reduction electrode) is given as “about 1.5 times”. In assay [1] (mediators added at 0.5 mM), the “Production of butyrate among MV, NR and AQDS (FIG. 2)” value is given as “highest”. Also, in assay [1] (setting [4]), the “Bio-gas % vs. control” value is 82%, the Bio-gas vol worked out at 110 mL, the “Butyrate % vs. control” value turned out to be 115% and the Butyrate final conc. worked out at 6.5 g/L. Besides, the “OD (600 nm)” value in assay [1] (methyl viologen 0.1 mM (embodiment 1-1), P2 medium sucrose 20 g/L, 37° C.) is 6.2 (±0.4). In assay [1] (setting [5]), the “Bio-gas % vs. control” value amounted to 80%, the Bio-gas vol amounted to 107 mL, the “Butyrate % vs. control” value is on record as 128% and the Butyrate final conc. worked out at 7.3 g/L. For the same compound, the “OD (600 nm)” value in assay [1] (setting [5]) was 6.3 (±0)^. Also, in assay [1] (setting [6]), the “Bio-gas % vs. control” value was determined as 65%, the Bio-gas vol is listed as 87 mL, the “Butyrate % vs. control” value stood at 150% and the Butyrate final conc. is given as 8.5 g/L. Further, the “OD (600 nm)” value in assay [1] (setting [6]) is reported as 5.8 (±0.3). In assay [1] (setting [7]), the “Bio-gas % vs. control” value is on record as 50%, the Bio-gas vol was found to be 67 mL, the “Butyrate % vs. control” value was found to be 109% and the Butyrate final conc. came to 6.2 g/L. Moreover, the “OD (600 nm)” value in assay [1] (setting [7]) is 5.4 (±0.8). For the same compound, in assay [1] (setting [8]), the “Bio-gas % vs. control” value is on record as 34%, the Bio-gas vol came out at 46 mL, the “Butyrate % vs. control” value is reported as 112% and the Butyrate final conc. turned out to be 6.4 g/L. For the same compound, the “OD (600 nm)” value in assay [1] (setting [8]) is on record as 3.9 (±0.9). In addition, in assay [1] (setting [9]), the “Bio-gas % vs. control” value stood at 3%, the Bio-gas vol was 4 mL, the “Butyrate % vs. control” value came to 14% and the Butyrate final conc. came out at 0.8 g/L. For the same compound, the “OD (600 nm)” value in assay [1] (setting [9]) was 1.5 (±1.9). In assay [1] (setting [10]), the “Bio-gas % vs. control” value is on record as 3%, the Bio-gas vol is reported as 4 mL, the “Butyrate % vs. control” value came out at 12% and the Butyrate final conc. was 0.7 g/L. For the same compound, in assay [1] (setting [10]), the “OD (600 nm)” value is reported as 0.2 (±0.1).
As to `Cc1cc2nc3ccc(N(C)C)cc3nc2cc1N.Cl` [neutral red, Neutral Red], in assay [2] (setting [11]), the “Acetate productivity” value was 0 g/L, h^−1; the “Butyrate productivity” value was 0.28 ± 0.01 g/L, h^−1; the Butyrate yield is 0.44 ± 0.04 g butyrate/g sucrose; the Final butyrate concentration is 8.8 ± 0.9 g/L. In assay [2] (setting [11]), the “Maximum O.D. (600 nm)” value amounted to 5.1 ± 0.7; the Specific growth rate is 0.87 ± 0.64 h⁻¹; the “Sucrose uptake rate” value is 0.67 ± 0 g/L, h^−1. Moreover, in assay [2] (setting [12]), the “Acetate productivity” value was 0 g/L, h^−1; the “Butyrate productivity” value is 0.31 ± 0.07 g/L, h^−1; the Butyrate yield turned out to be 0.45 ± 0.02 g butyrate/g sucrose; the Final butyrate concentration is recorded as 6.7 ± 0.3 g/L. Besides, in assay [2] (setting [12]), the “Maximum O.D. (600 nm)” value is reported as 5.0 ± 0.4; the Specific growth rate was determined as 0.11 ± 0.01 h⁻¹; the “Sucrose uptake rate” value was 0.64 ± 0.31 g/L, h^−1. Further, in assay [2] (embodiment 2, neutral red reduction electrode system, increased from 5 g/L), the “Production of butyrate (FIG. 4)” value is 8 g/L. In assay [2] (embodiments 2 and 3, neutral red), the “Acetic acid production in the reduction electrode system” value was “did not produce acetic acid”. Also, the “Production of butyrate in the reduction electrode system” value in assay [2] (neutral red, embodiments 2 and 3, −400 mV vs. Ag/AgCl) was “increase in the production of butyrate”. Also, the “Enhancement of butyrate production” value in assay [1] is “didn't make any effects”. Moreover, in assay [1] (listed as NR), the “Enhancement of butyrate production” value is “impossible to enhance the production of butyrate”.
